Source: ChEMBL document CHEMBL3046591, “Design and synthesis of some azole derivatives as potential antimicrobial agents” (2012)
Activity calls are given as the source filed them. No cut-off for these calls is given here.

Key:
Assay type in all cases: functional
Candida tropicalis [1] = test: Antifungal activity against Candida tropicalis ATCC 13803 after 18 hr by agar well diffusion method
[2] = test system: Yersinia pseudotuberculosis; test: Antibacterial activity against Yersinia pseudotuberculosis ATCC 911 after 18 hr by agar well diffusion method
Listeria monocytogenes [3] = test: Antibacterial activity against Listeria monocytogenes ATCC 43251 after 18 hr by agar well diffusion method
Candida albicans [4] = test: Antifungal activity against Candida albicans ATCC 60193 after 18 hr by agar well diffusion method
Enterococcus faecalis [5] = test: Antibacterial activity against Enterococcus faecalis ATCC 29212 after 18 hr by agar well diffusion method
[6] = test system: Mycolicibacterium smegmatis; test: Antibacterial activity against Mycobacterium smegmatis ATCC 607 after 18 hr by agar well diffusion method
Klebsiella pneumoniae [7] = test: Antibacterial activity against Klebsiella pneumoniae ATCC 13883 after 18 hr by agar well diffusion method
Bacillus cereus [8] = test: Antibacterial activity against Bacillus cereus 702 Roma after 18 hr by agar well diffusion method
Escherichia coli [9] = test: Antibacterial activity against Escherichia coli ATCC 25922 after 18 hr by agar well diffusion method
Klebsiella aerogenes [10] = test: Antibacterial activity against Enterobacter aerogenes ATCC 13048 after 18 hr by agar well diffusion method
Staphylococcus aureus [11] = test: Antibacterial activity against Staphylococcus aureus ATCC 25923 after 18 hr by agar well diffusion method
Candida albicans [12] = test: Antifungal activity against Candida albicans ATCC 60193 at 5 mg after 18 hr by agar well diffusion method; settings: ATCC 60193, 18 h, read-out: IZ
Candida tropicalis [13] = test: Antifungal activity against Candida tropicalis ATCC 13803 at 5 mg after 18 hr by agar well diffusion method; settings: ATCC 13803, 18 h, read-out: IZ
Escherichia coli [14] = test: Antibacterial activity against Escherichia coli ATCC 25922 at 10 mg after 18 hr by agar well diffusion method; settings: ATCC 25922, 18 h, read-out: IZ
Staphylococcus aureus [15] = test: Antibacterial activity against Staphylococcus aureus ATCC 25923 at 10 mg after 18 hr by agar well diffusion method; settings: ATCC 25923, 18 h, read-out: IZ
Listeria monocytogenes [16] = test: Antibacterial activity against Listeria monocytogenes ATCC 43251 at 10 mg after 18 hr by agar well diffusion method; settings: ATCC 43251, 18 h, read-out: IZ
Klebsiella aerogenes [17] = test: Antibacterial activity against Enterobacter aerogenes ATCC 13048 at 10 mg after 18 hr by agar well diffusion method; settings: ATCC 13048, 18 h, read-out: IZ
Bacillus cereus [18] = test: Antibacterial activity against Bacillus cereus 702 Roma at 10 mg after 18 hr by agar well diffusion method; settings: read-out: IZ
Klebsiella pneumoniae [19] = test: Antibacterial activity against Klebsiella pneumoniae ATCC 13883 at 10 mg after 18 hr by agar well diffusion method; settings: ATCC 13883, 18 h, read-out: IZ
Enterococcus faecalis [20] = test: Antibacterial activity against Enterococcus faecalis ATCC 29212 at 10 mg after 18 hr by agar well diffusion method; settings: ATCC 29212, 18 h, read-out: IZ
[21] = test system: Yersinia pseudotuberculosis; test: Antibacterial activity against Yersinia pseudotuberculosis ATCC 911 at 10 mg after 18 hr by agar well diffusion method; settings: ATCC 911, 18 h, read-out: IZ

SMILES: O=c1[nH]nc(Cc2ccccc2)n1Cc1ccco1
- inhibition zone (IZ) (Candida tropicalis [1]): inactive
- inhibition zone (IZ) [2]: inactive
- inhibition zone (IZ) (Listeria monocytogenes [3]): 8 mm
- inhibition zone (IZ) (Candida albicans [4]): inactive
- inhibition zone (IZ) (Enterococcus faecalis [5]): 10 mm
- inhibition zone (IZ) [6]: 10 mm
- inhibition zone (IZ) (Klebsiella pneumoniae [7]): 10 mm
- inhibition zone (IZ) (Bacillus cereus [8]): 8 mm
- inhibition zone (IZ) (Escherichia coli [9]): inactive
- inhibition zone (IZ) (Klebsiella aerogenes [10]): 10 mm
- inhibition zone (IZ) (Staphylococcus aureus [11]): 20 mm

SMILES: Cc1n[nH]c(=O)n1Cc1ccco1
- inhibition zone (IZ) (Candida tropicalis [1]): inactive
- inhibition zone (IZ) [2]: inactive
- inhibition zone (IZ) (Listeria monocytogenes [3]): 6 mm
- inhibition zone (IZ) (Candida albicans [4]): inactive
- inhibition zone (IZ) (Enterococcus faecalis [5]): inactive
- inhibition zone (IZ) [6]: 10 mm
- inhibition zone (IZ) (Klebsiella pneumoniae [7]): 10 mm
- inhibition zone (IZ) (Bacillus cereus [8]): 8 mm
- inhibition zone (IZ) (Escherichia coli [9]): inactive
- inhibition zone (IZ) (Klebsiella aerogenes [10]): 10 mm
- inhibition zone (IZ) (Staphylococcus aureus [11]): 20 mm

SMILES: Cc1nn(S(=O)(=O)c2ccccc2)c(=O)n1Cc1ccco1
- inhibition zone (IZ) (Candida tropicalis [1]): inactive
- inhibition zone (IZ) [2]: 12 mm
- inhibition zone (IZ) (Listeria monocytogenes [3]): 20 mm
- inhibition zone (IZ) (Candida albicans [4]): inactive
- inhibition zone (IZ) (Enterococcus faecalis [5]): 25 mm
- inhibition zone (IZ) [6]: 20 mm
- inhibition zone (IZ) (Klebsiella pneumoniae [7]): 20 mm
- inhibition zone (IZ) (Bacillus cereus [8]): 15 mm
- inhibition zone (IZ) (Escherichia coli [9]): 20 mm
- inhibition zone (IZ) (Klebsiella aerogenes [10]): 15 mm
- inhibition zone (IZ) (Staphylococcus aureus [11]): 35 mm

SMILES: OC(Cn1cncn1)(Cn1cncn1)c1ccc(F)cc1F [FLUCONAZOLE]
- zone of inhibition at 5000 µg/disc (Candida albicans [12]): 25 mm
- zone of inhibition at 5000 µg/disc (Candida tropicalis [13]): 25 mm

SMILES: Cc1nn(Cc2nnc(S)n2-c2ccccc2)c(=O)n1Cc1ccco1
- inhibition zone (IZ) (Candida tropicalis [1]): inactive
- inhibition zone (IZ) [2]: 10 mm
- inhibition zone (IZ) (Listeria monocytogenes [3]): inactive
- inhibition zone (IZ) (Candida albicans [4]): inactive
- inhibition zone (IZ) (Enterococcus faecalis [5]): inactive
- inhibition zone (IZ) [6]: inactive
- inhibition zone (IZ) (Klebsiella pneumoniae [7]): 10 mm
- inhibition zone (IZ) (Bacillus cereus [8]): inactive
- inhibition zone (IZ) (Escherichia coli [9]): 6 mm
- inhibition zone (IZ) (Klebsiella aerogenes [10]): 6 mm
- inhibition zone (IZ) (Staphylococcus aureus [11]): inactive

SMILES: Cc1n[nH]c(=O)n1CC1CCCO1 (centres undefined)
- inhibition zone (IZ) (Candida tropicalis [1]): inactive
- inhibition zone (IZ) [2]: inactive
- inhibition zone (IZ) (Listeria monocytogenes [3]): 7 mm
- inhibition zone (IZ) (Candida albicans [4]): inactive
- inhibition zone (IZ) (Enterococcus faecalis [5]): 10 mm
- inhibition zone (IZ) [6]: 15 mm
- inhibition zone (IZ) (Klebsiella pneumoniae [7]): 8 mm
- inhibition zone (IZ) (Bacillus cereus [8]): 15 mm
- inhibition zone (IZ) (Escherichia coli [9]): inactive
- inhibition zone (IZ) (Klebsiella aerogenes [10]): 8 mm
- inhibition zone (IZ) (Staphylococcus aureus [11]): 20 mm

SMILES: Cc1nn(Cc2n[nH]c(=O)n2Cc2ccccc2)c(=O)n1Cc1ccco1
- inhibition zone (IZ) (Candida tropicalis [1]): inactive
- inhibition zone (IZ) [2]: 10 mm
- inhibition zone (IZ) (Listeria monocytogenes [3]): inactive
- inhibition zone (IZ) (Candida albicans [4]): inactive
- inhibition zone (IZ) (Enterococcus faecalis [5]): inactive
- inhibition zone (IZ) [6]: inactive
- inhibition zone (IZ) (Klebsiella pneumoniae [7]): 10 mm
- inhibition zone (IZ) (Bacillus cereus [8]): 6 mm
- inhibition zone (IZ) (Escherichia coli [9]): 8 mm
- inhibition zone (IZ) (Klebsiella aerogenes [10]): 6 mm
- inhibition zone (IZ) (Staphylococcus aureus [11]): inactive

SMILES: CCCS(=O)(=O)n1nc(Cc2ccccc2)n(Cc2ccco2)c1=O
- inhibition zone (IZ) (Candida tropicalis [1]): inactive
- inhibition zone (IZ) [2]: 10 mm
- inhibition zone (IZ) (Listeria monocytogenes [3]): inactive
- inhibition zone (IZ) (Candida albicans [4]): inactive
- inhibition zone (IZ) (Enterococcus faecalis [5]): 8 mm
- inhibition zone (IZ) [6]: 15 mm
- inhibition zone (IZ) (Klebsiella pneumoniae [7]): 10 mm
- inhibition zone (IZ) (Bacillus cereus [8]): inactive
- inhibition zone (IZ) (Escherichia coli [9]): 8 mm
- inhibition zone (IZ) (Klebsiella aerogenes [10]): 8 mm
- inhibition zone (IZ) (Staphylococcus aureus [11]): 15 mm

SMILES: CCOC(=O)Cn1nc(C)n(Cc2ccco2)c1=O
- inhibition zone (IZ) (Candida tropicalis [1]): 7 mm
- inhibition zone (IZ) [2]: inactive
- inhibition zone (IZ) (Listeria monocytogenes [3]): 8 mm
- inhibition zone (IZ) (Candida albicans [4]): 9 mm
- inhibition zone (IZ) (Enterococcus faecalis [5]): inactive
- inhibition zone (IZ) [6]: 15 mm
- inhibition zone (IZ) (Klebsiella pneumoniae [7]): 10 mm
- inhibition zone (IZ) (Bacillus cereus [8]): 6 mm
- inhibition zone (IZ) (Escherichia coli [9]): inactive
- inhibition zone (IZ) (Klebsiella aerogenes [10]): 10 mm
- inhibition zone (IZ) (Staphylococcus aureus [11]): 8 mm

SMILES: CN[C@@H]1[C@H](O[C@H]2[C@H](O[C@H]3[C@H](O)[C@@H](O)[C@H](N=C(N)N)[C@@H](O)[C@@H]3N=C(N)N)O[C@@H](C)[C@]2(O)C=O)O[C@@H](CO)[C@H](O)[C@H]1O [STREPTOMYCIN]
- inhibition zone (IZ) [6]: 35 mm

SMILES: CC1(C)S[C@@H]2[C@H](NC(=O)[C@H](N)c3ccccc3)C(=O)N2[C@H]1C(=O)O [AMPICILLIN]
- inhibition zone (IZ) (Candida tropicalis [1]): inactive
- zone of inhibition at 10000 µg/disc (Escherichia coli [14]): 10 mm
- zone of inhibition at 10000 µg/disc (Staphylococcus aureus [15]): 35 mm
- zone of inhibition at 10000 µg/disc (Listeria monocytogenes [16]): 10 mm
- inhibition zone (IZ) (Candida albicans [4]): inactive
- zone of inhibition at 10000 µg/disc (Klebsiella aerogenes [17]): 10 mm
- zone of inhibition at 10000 µg/disc (Bacillus cereus [18]): 15 mm
- zone of inhibition at 10000 µg/disc (Klebsiella pneumoniae [19]): 18 mm
- zone of inhibition at 10000 µg/disc (Enterococcus faecalis [20]): 10 mm
- zone of inhibition at 10000 µg/disc [21]: > 18 mm

SMILES: Cc1nn(S(=O)(=O)c2ccc([N+](=O)[O-])cc2)c(=O)n1Cc1ccco1
- inhibition zone (IZ) (Candida tropicalis [1]): inactive
- inhibition zone (IZ) [2]: 12 mm
- inhibition zone (IZ) (Listeria monocytogenes [3]): inactive
- inhibition zone (IZ) (Candida albicans [4]): inactive
- inhibition zone (IZ) (Enterococcus faecalis [5]): 6 mm
- inhibition zone (IZ) [6]: 40 mm
- inhibition zone (IZ) (Klebsiella pneumoniae [7]): 20 mm
- inhibition zone (IZ) (Bacillus cereus [8]): 15 mm
- inhibition zone (IZ) (Escherichia coli [9]): 15 mm
- inhibition zone (IZ) (Klebsiella aerogenes [10]): 15 mm
- inhibition zone (IZ) (Staphylococcus aureus [11]): 15 mm

SMILES: O=c1n(S(=O)(=O)c2ccc(Br)cc2)nc(Cc2ccccc2)n1Cc1ccco1
- inhibition zone (IZ) (Candida tropicalis [1]): inactive
- inhibition zone (IZ) [2]: 8 mm
- inhibition zone (IZ) (Listeria monocytogenes [3]): inactive
- inhibition zone (IZ) (Candida albicans [4]): inactive
- inhibition zone (IZ) (Enterococcus faecalis [5]): 8 mm
- inhibition zone (IZ) [6]: 10 mm
- inhibition zone (IZ) (Klebsiella pneumoniae [7]): 15 mm
- inhibition zone (IZ) (Bacillus cereus [8]): inactive
- inhibition zone (IZ) (Escherichia coli [9]): 10 mm
- inhibition zone (IZ) (Klebsiella aerogenes [10]): 8 mm
- inhibition zone (IZ) (Staphylococcus aureus [11]): 10 mm

SMILES: O=c1n(S(=O)(=O)c2ccc(Cl)cc2)nc(Cc2ccccc2)n1Cc1ccco1
- inhibition zone (IZ) (Candida tropicalis [1]): inactive
- inhibition zone (IZ) [2]: 8 mm
- inhibition zone (IZ) (Listeria monocytogenes [3]): inactive
- inhibition zone (IZ) (Candida albicans [4]): inactive
- inhibition zone (IZ) (Enterococcus faecalis [5]): 10 mm
- inhibition zone (IZ) [6]: 10 mm
- inhibition zone (IZ) (Klebsiella pneumoniae [7]): 10 mm
- inhibition zone (IZ) (Bacillus cereus [8]): inactive
- inhibition zone (IZ) (Escherichia coli [9]): 6 mm
- inhibition zone (IZ) (Klebsiella aerogenes [10]): 8 mm
- inhibition zone (IZ) (Staphylococcus aureus [11]): 15 mm
